These results are taken from ChEMBL document CHEMBL4043288, “( S)-2-Amino-3-(5-methyl-3-hydroxyisoxazol-4-yl)propanoic Acid (AMPA) and Kainate Receptor Ligands: Further Exploration of Bioisosteric Replacements and Structural and Biological Investigation” (J Med Chem, 2018).

For data set [1], the system named is Rattus norvegicus. The data set can be described thus: Analgesic activity in Wistar Han rat assessed as inhibition of formalin-induced pain by measuring locomotor activities at 2 mg/kg, ip administered 30 mins prior to formalin injection measured after 45 mins by formalin test. The data set is classed as functional, organism-based.
Data set [2] deals with Rattus norvegicus. The data set can be described thus: Analgesic activity in Wistar Han rat assessed as inhibition of formalin-induced pain by measuring time spent licking injected paw in early phase at 2 mg/kg, ip administered 30 mins prior to formalin injection measured for first 15 mins after formalin injection. The data set is classed as functional, organism-based.
In data set [3] the test system is Rattus norvegicus. Description: Analgesic activity in Wistar Han rat assessed as inhibition of formalin-induced pain by measuring paw-jerk frequency in early phase at 2 mg/kg, ip administered 30 mins prior to formalin injection measured for 15 to 60 mins after formalin injection. The data set is classed as functional, organism-based.
Data set [4] has as its system Rattus norvegicus. Description: Analgesic activity in Wistar Han rat assessed as inhibition of formalin-induced pain by measuring locomotor activities at 2 mg/kg, ip administered 30 mins prior to formalin injection measured after 30 mins by formalin test. It counts as functional, organism-based.
Data set [5] relates to Rattus norvegicus. The data set can be described thus: Analgesic activity in Wistar Han rat assessed as inhibition of formalin-induced pain by measuring flexing duration in late phase at 2 mg/kg, ip administered 30 mins prior to formalin injection measured for 15 to 60 mins after formalin injection.
Data set [6] deals with Rattus norvegicus. Description: Analgesic activity in Wistar Han rat assessed as inhibition of formalin-induced pain by measuring paw-jerk frequency in early phase at 2 mg/kg, ip administered 30 mins prior to formalin injection measured for first 15 mins after formalin injection. The data set is classed as functional, organism-based.
Data set [7] has as its system Rattus norvegicus. The data set can be described thus: Analgesic activity in Wistar Han rat assessed as inhibition of formalin-induced pain by measuring flexing duration in early phase at 2 mg/kg, ip administered 30 mins prior to formalin injection measured for first 15 mins after formalin injection. The data set is classed as functional, organism-based.
Data set [8] concerns Rattus norvegicus. The data set can be described thus: Analgesic activity in Wistar Han rat assessed as inhibition of formalin-induced pain by measuring time spent licking injected paw in late phase at 2 mg/kg, ip administered 30 mins prior to formalin injection measured for 15 to 60 mins after formalin injection.
Data set [9] deals with Glutamate receptor ionotropic, kainate 1 (Rattus norvegicus, UniProt P22756). The data set can be described thus: Displacement of [3H]SYM2081 from recombinant homomeric rat GluK1 receptor expressed in baculovirus infected Sf9 insect cell membranes. For orientation: Displacement assays read how much labelled ligand stays bound in the presence of the test substance.
In data set [10] the target is Glutamate receptor ionotropic, kainate 2 (Rattus norvegicus, UniProt P42260). The data set can be described thus: Displacement of [3H]SYM2081 from recombinant homomeric rat GluK2 receptor expressed in baculovirus infected Sf9 insect cell membranes.
For data set [11], the target named is Glutamate receptor ionotropic, kainate 3 (Rattus norvegicus, UniProt P42264). The data set can be described thus: Displacement of [3H]SYM2081 from recombinant homomeric rat GluK3 receptor expressed in baculovirus infected Sf9 insect cell membranes.
The species named for data set [12] is Rattus norvegicus. The data set can be described thus: Selectivity ratio of Ki for recombinant homomeric rat GluK3 expressed in Sf9 insect cells to Ki for recombinant homomeric rat GluK1 expressed in Sf9 insect cells.
The species entered for data set [13] is Rattus norvegicus. Description: Selectivity ratio of Ki for recombinant homomeric rat GluK3 expressed in Sf9 insect cells to Ki for recombinant homomeric rat GluA2 expressed in Sf9 insect cells.
Data set [14] addresses Glutamate receptor 2 (Rattus norvegicus, UniProt P19491). The data set can be described thus: Displacement of [3H]AMPA from recombinant homomeric rat GluA2 receptor expressed in baculovirus infected Sf9 insect cell membranes.
The nature of data set [15]: Permeability of compound in rat brain at 100 uM perfused for 60 secs by LC-MS analysis. The data set is classed as ADME, tissue-based. The following applies: not told, other: brain perfusion, read-out: permeability.

SMILES strings stand for the structures. Activity calls are given as the source filed them. No cut-off for these calls is given here.

For orientation: Ki means the dissociation constant of the complex between target and ligand, obtained from inhibition or displacement.

Chain of Glutamate receptor 2 (P19491 whole entry, the tested form may be a part): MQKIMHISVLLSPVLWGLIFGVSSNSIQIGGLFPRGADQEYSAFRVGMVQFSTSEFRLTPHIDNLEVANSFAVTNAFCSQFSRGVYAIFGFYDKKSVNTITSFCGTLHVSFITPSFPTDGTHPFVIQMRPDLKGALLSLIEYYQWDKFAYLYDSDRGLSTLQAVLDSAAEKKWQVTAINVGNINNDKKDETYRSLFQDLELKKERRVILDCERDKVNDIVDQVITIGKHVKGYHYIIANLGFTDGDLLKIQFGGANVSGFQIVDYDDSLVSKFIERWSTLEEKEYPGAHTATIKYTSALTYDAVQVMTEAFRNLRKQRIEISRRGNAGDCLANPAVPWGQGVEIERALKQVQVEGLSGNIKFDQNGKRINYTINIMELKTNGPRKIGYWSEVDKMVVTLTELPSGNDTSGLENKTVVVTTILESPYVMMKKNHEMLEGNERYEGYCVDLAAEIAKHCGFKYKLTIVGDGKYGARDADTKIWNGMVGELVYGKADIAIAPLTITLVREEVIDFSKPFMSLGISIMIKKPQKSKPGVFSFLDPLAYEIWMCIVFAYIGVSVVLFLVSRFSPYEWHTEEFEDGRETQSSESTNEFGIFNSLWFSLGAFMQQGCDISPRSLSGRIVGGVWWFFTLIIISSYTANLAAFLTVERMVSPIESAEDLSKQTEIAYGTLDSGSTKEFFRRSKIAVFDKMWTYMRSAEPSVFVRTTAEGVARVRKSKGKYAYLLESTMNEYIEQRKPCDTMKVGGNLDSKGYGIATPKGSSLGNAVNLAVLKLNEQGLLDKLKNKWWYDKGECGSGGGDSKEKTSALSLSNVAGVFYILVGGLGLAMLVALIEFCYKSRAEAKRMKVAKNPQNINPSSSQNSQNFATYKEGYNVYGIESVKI
Chain of Glutamate receptor ionotropic, kainate 1 (P22756 whole entry): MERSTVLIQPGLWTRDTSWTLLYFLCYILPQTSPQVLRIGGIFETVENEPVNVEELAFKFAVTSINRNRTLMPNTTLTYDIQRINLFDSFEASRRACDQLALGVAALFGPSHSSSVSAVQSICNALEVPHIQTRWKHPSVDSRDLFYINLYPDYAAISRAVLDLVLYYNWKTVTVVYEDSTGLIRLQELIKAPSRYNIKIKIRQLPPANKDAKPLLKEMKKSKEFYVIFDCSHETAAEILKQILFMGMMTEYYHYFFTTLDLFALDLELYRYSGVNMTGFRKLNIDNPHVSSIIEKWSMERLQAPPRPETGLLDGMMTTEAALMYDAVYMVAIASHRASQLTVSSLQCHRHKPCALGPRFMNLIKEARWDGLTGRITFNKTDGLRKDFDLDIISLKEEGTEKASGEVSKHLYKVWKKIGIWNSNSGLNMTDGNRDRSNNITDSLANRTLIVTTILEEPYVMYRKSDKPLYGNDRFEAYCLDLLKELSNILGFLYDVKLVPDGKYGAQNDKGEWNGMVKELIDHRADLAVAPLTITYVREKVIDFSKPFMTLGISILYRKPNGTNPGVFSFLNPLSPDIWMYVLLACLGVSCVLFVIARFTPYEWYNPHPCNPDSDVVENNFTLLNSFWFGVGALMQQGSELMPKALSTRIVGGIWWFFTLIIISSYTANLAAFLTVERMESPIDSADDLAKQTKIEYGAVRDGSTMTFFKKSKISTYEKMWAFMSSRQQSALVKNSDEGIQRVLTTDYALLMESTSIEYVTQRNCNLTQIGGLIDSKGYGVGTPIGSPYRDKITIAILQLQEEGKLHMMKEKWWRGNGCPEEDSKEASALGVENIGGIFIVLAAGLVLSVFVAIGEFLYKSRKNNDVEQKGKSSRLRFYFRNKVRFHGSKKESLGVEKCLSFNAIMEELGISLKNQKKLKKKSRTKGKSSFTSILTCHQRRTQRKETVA
Chain of Glutamate receptor ionotropic, kainate 2 (P42260 whole entry): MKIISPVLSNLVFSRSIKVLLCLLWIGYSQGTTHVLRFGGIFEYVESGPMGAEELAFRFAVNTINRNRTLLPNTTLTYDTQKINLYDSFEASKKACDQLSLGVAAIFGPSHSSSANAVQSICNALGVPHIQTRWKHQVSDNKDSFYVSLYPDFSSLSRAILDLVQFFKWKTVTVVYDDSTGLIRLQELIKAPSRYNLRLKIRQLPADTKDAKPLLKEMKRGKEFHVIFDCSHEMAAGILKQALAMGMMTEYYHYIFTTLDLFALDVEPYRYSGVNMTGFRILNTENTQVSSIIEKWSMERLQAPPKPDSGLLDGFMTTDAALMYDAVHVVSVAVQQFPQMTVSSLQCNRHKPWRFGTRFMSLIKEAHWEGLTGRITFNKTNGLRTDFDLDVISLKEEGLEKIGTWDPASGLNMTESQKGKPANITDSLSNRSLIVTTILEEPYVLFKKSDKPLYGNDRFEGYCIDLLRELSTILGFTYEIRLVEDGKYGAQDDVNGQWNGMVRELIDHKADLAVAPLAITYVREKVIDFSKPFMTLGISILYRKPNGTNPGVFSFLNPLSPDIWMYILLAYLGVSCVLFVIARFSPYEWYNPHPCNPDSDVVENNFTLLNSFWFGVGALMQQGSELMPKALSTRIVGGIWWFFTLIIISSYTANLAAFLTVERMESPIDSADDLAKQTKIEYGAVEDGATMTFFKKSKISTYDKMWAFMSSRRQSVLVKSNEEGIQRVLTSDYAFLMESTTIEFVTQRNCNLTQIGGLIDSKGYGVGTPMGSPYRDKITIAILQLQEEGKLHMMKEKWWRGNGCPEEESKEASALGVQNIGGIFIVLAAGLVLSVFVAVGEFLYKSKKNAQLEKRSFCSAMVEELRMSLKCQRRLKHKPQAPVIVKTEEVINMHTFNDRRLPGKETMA
Chain of Glutamate receptor ionotropic, kainate 3 (P42264 whole entry): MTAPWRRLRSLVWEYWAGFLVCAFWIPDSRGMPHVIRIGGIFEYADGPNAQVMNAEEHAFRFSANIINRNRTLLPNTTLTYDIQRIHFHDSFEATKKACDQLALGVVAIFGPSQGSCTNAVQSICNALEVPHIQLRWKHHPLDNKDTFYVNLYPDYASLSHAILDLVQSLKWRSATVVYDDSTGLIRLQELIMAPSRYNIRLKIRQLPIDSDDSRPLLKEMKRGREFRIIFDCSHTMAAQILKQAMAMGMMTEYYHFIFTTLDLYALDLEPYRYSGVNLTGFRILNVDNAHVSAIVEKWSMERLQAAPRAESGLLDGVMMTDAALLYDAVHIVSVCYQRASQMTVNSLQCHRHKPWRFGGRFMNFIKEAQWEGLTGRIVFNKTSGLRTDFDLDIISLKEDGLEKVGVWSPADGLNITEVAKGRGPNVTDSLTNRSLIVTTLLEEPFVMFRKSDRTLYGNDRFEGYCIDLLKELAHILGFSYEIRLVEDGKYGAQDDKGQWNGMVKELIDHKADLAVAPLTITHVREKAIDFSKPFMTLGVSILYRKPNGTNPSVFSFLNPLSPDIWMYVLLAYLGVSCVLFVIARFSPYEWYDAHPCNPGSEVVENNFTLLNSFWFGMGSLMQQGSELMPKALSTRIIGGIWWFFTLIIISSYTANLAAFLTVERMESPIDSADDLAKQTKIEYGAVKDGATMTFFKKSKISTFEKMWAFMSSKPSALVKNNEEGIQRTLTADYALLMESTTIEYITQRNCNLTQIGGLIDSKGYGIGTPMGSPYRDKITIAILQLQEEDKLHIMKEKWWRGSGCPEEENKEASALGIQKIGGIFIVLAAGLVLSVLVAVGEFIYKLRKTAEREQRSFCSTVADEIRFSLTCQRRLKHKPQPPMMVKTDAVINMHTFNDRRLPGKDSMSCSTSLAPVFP

For `N[C@@H](Cn1c(=O)[nH]c(=O)c2cscc21)C(=O)O`, the outcome in data set [1], in data set [2], in [3], in [4], in data set [5] and in data set [6] was Active. For the same compound, the result in data set [7] and in data set [8] was Active.
Turning to `N[C@@H](Cn1c2c(c(=O)[nH]c1=O)COC2)C(=O)O`, the inhibition constant Ki in data set [9] is 0.586 µM; in data set [10] it was > 1000 µM; in data set [11], 111 µM.
As to `N[C@@H](Cn1c2c(c(=O)[nH]c1=O)CNC2)C(=O)O`, the Ratio Ki in data set [12] came to 21; in data set [13] it was 8. Moreover, the Ki in data set [9] was 0.869 µM; in data set [14], 2.37 µM; in data set [10] it was > 1000 µM; in data set [11] it was 18.1 µM.
On to `N[C@@H](Cn1c(=O)n(Cc2nnc(O)o2)c(=O)c2cscc21)C(=O)O`, for which the Ratio Ki in data set [12] was > 3. The Ki in data set [9] is 36 µM; in data set [14] it was > 100 µM; in data set [10], > 1000 µM; in data set [11], 100 µM.
In the case of `N[C@@H](Cn1c2c(c(=O)[nH]c1=O)CCC2)C(=O)O`, the Ki in [10] is > 1000 µM.
For the compound `CN1Cc2c(n(C[C@H](N)C(=O)O)c(=O)[nH]c2=O)C1`, the Ratio Ki in [12] was 6; in data set [13], 1. The Ki in [9] is 0.356 µM; in [14], 1.99 µM; in data set [10], > 1000 µM; in data set [11], 2.15 µM.
For `N[C@@H](Cn1c(=O)n(Cc2ccsc2C(=O)O)c(=O)c2cscc21)C(=O)O`, the result in [2], in data set [3], in data set [4], in data set [5], in data set [6] and in data set [7] was Active. Further, the outcome in [8] was Active. The Papp at 1 min, 100 µM in [15] is 5.9 nm/s.
